Data: publication PMC3629974 (Journal of nuclear medicine : official publication, Society …, 2011)

Columns and labels:
[1] = target: human PKR1 (Homo sapiens, UniProt Q8TCW9); test: Competition cell-binding assay with ^125I-MIT-1 on CHO-PKR1 cells; conditions: PC-10 binding IC50 vs PC-7 functional IC50 (33 nM)
[2] = system: CHO-PKR1 cells; test: Cell uptake, internalization and efflux of ^18F-PC-10; format: cell-based, Chinese hamster
[3] = system: CFA-induced inflamed paw (PKR1-expressing); test: Small-animal PET of CFA-induced inflammatory pain model; format: in vivo, C57BL/6 mice
[4] = Ex vivo biodistribution in CFA-treated mice; design: species or system C57BL/6 mice; conditions: 2 h after injection

Sequence of human PKR1 (Q8TCW9 whole entry): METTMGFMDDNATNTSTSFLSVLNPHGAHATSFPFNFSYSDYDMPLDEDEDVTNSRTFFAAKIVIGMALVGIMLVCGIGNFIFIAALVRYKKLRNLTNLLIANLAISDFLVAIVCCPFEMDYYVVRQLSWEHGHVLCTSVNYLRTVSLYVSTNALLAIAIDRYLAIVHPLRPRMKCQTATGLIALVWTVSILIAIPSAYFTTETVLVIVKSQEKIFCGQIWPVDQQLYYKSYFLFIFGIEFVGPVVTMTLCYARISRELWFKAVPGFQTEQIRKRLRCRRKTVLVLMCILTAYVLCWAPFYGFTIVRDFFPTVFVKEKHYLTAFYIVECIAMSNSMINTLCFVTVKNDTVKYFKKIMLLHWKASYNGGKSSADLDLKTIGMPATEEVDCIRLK

| Compound | binding affinity to PKR1 lower than functional IC50 of PC-7 [1] [fold] | time at which cell uptake reached a plateau ([2]; 37°C) [h] | time at which internalization reached a plateau ([2]; 37°C, stable up to 2 h) [h] | part of observed uptake due to internalization ([2]; acid buffer pH 2.8 wash) | time after medium replacement at which half of the activity was unbound (efflux) ([2]; after 2 h loading) [min] | time at which efflux reached a plateau ([2]; after medium replacement) [h] | decrease of uptake in inflamed paw by blocking ([3]; 1 h after injection, coinjected with excess PC-7) | uptake in control paw ([3]; PET, 2 h after injection) [%ID/g] | activity in blood [4] [%ID/g] | uptake in bone [4] [%ID/g] | uptake in kidneys [4] [%ID/g] | uptake in liver [4] [%ID/g] | uptake in salivary gland [4] [%ID/g] |
| --- | --- | --- | --- | --- | --- | --- | --- | --- | --- | --- | --- | --- | --- |
| COc1ccc(Cn2c(NCCNC(=N)NC(=O)c3ccc(F)cc3)nc(=O)n(Cc3ccc(F)cc3)c2=O)cc1 [PC-10, N-(4-fluoro-benzoyl)-N′-{2-[5-(4-fluoro-benzyl)-1-(4-methoxy-benzyl)-4,6-dioxo-1,4,5,6-tetrahydro-[1,3,5]triazin-2-ylamino]-ethyl}-guanidine] | 3 | – | – | – | – | – | – | – | – | – | – | – | – |
| COc1ccc(Cn2c(NCCNC(=N)NC(=O)c3ccc([18F])cc3)nc(=O)n(Cc3ccc(F)cc3)c2=O)cc1 [^18F-PC-10, N-(4-^18F-fluoro-benzoyl)-N′-{2-[5-(4-fluoro-benzyl)-1-(4-methoxy-benzyl)-4,6-dioxo-1,4,5,6-tetrahydro-[1,3,5]triazin-2-ylamino]-ethyl}-guanidine] | – | 0.5 | 0.5 | Approximately half | ≤ 15 | 1 | approximately 70% | 0.13 ± 0.01 | 0.22 ± 0.05 | 0.69 ± 0.12 | 5.26 ± 1.06 | 3.80 ± 1.14 | 3.05 ± 1.10 |
